# Reference: patent US11040054B2, “Estrogen sensing through GPER1 regulates normal and malignant liver growth” (The Brigham and Women's Hospital, Inc., priority 2016, dated 2021)
# Key:
# [1] = system: PI3K/Akt, MAPK/Erk and mTORC1 pathways; assay: Western blot analysis of whole larvae (p-Akt, p-Erk, p-S6); assay type: in vivo, zebrafish
# From the text: Pooled larvae (n=30-40) and cultured cells were homogenized in radioimmunoprecipitation assay (RIPA) lysis buffer and processed as previously described.^15 Lysates were separated by gel electrophoresis and subjected to Western blot.
# [2] = system: zebrafish larvae liver; assay: Larval liver size analysis (ISH for fabp10a, fabp10a:GFP imaging) at 120 hpf; assay type: in vivo; details: for liver size at 120 hpf: compound alone, exposure 110-115 hpf; for liver size in gper1−/− mutants or gper1 morphants: gper1 loss of function larvae; for effect on E2-induced enhancement in liver size: co-exposure with E2 (or knockdown plus E2)
# Protocol: Zebrafish larvae were exposed to chemicals, dissolved in 0.1% (v/v) dimethylsulfoxide (DMSO), at specified doses for 5 hrs. from 110-115 hours post fertilization (hpf) and analyzed at 120 hpf (unless otherwise specified). Adults were treated for 5-7 hrs. per exposure with frequency as described.
# Larvae were fixed with paraformaldehyde and in situ hybridization (ISH) performed according to standard protocols.^16 gper1 probe was generously gifted by David Volz.^17
# ISH images were obtained by brightfield microscopy, and fabp10a:GFP reporter larvae were imaged using fluorescence microscopy. 3D imaging of fabp10a:GFP fish was performed with a Zeiss LightsheetZ.1. […] were fixed and paraffin embedded. Tissues were sectioned (5 μm) and stained with hematoxylin & eosin (H&E). De-identified formalin-fixed paraffin-embedded human liver sections were obtained from pathology files of the University of Utah (IRB 00091019) and commercially available tissue arrays (OD-CT-DgLiv01-003, US Biomax). Immunohistochemistry (IHC) (using antibodies listed in Table 4) and terminal deoxynucleotidyl transferase dUTP nick-end labeling (TUNEL) staining were performed using established protocols.^16 GPER1 staining was scored by a pathologist based on the mean amount of cytoplasmic reactivity in hepatic cells: 0+, minimal/no staining; 1+, faint/mild staining; 2+, moderate staining; 3+, strong staining.
# [3] = system: hepatocytes in larval liver; details: for PCNA+ cells in the liver: compound alone, larvae
# Protocol: ISH images were obtained by brightfield microscopy, and fabp10a:GFP reporter larvae were imaged using fluorescence microscopy. 3D imaging of fabp10a:GFP fish was performed with a Zeiss LightsheetZ.1. […] Tissues were sectioned (5 μm) and stained with hematoxylin & eosin (H&E).
# [4] = system: fabp10a:GFP+ hepatocytes; details: zebrafish, in vivo
# Protocol: To determine the cellular mechanism by which E2 enlarges liver size, cell cycle analysis was performed on propidium iodide-stained fabp10a:GFP^+ hepatocytes by flow cytometry (FIG. 3A).
# [5] = system: HepG2 cells; assay: HepG2 signaling immunoblot (p-Akt, p-S6); details: G15 500 nM co-exposure with E2 10 nM
# Protocol: HepG2 cells (Sigma-Aldrich, USA) were cultured in phenol-red free, Minimum Essential Medium Eagle (MEM) supplemented with 10% heat-inactivated fetal bovine serum (Hyclone, Thermo Scientific, USA), L-glutamine (2 mM), 1% non-essential amino acids and penicillin-streptomycin (10,000 U/mL), at 37° C. and 5% CO2.
# [6] = system: liver tumors in DMBA-exposed WT zebrafish; assay: DMBA chemical carcinogenesis followed by chemical prevention trial
# Protocol: gper1^−/− or wild-type fry were exposed to 5 ppm dimethylbenzanthrazene (DMBA) for 24 hrs. at 3, 4, and 5 weeks.^19 Fish recovered for 1 week prior to longitudinal chemical exposures commencing at 6 weeks (3 times/week). Fish were monitored daily for survival and tumor formation until 33 weeks post DMBA treatment. Fish were either analyzed immediately after death or at 33 weeks post DMBA exposure, when all remaining fish were sacrificed. Histologic analysis was performed by a board-certified pathologist with expertise in zebrafish liver histology in a blinded fashion.
# [7] = molecular target: GPER1 (Homo sapiens, UniProt Q99527); details: cited from earlier work
# [8] = system: regenerating larval liver; assay: Liver regeneration after metronidazole (Mtz) hepatocyte ablation in Tg(fabp10a:CFP-NTR) larvae
# [9] = system: hepatic lesions; details: in vivo; cited from earlier work
# Sequence of GPER1 (Q99527 whole entry): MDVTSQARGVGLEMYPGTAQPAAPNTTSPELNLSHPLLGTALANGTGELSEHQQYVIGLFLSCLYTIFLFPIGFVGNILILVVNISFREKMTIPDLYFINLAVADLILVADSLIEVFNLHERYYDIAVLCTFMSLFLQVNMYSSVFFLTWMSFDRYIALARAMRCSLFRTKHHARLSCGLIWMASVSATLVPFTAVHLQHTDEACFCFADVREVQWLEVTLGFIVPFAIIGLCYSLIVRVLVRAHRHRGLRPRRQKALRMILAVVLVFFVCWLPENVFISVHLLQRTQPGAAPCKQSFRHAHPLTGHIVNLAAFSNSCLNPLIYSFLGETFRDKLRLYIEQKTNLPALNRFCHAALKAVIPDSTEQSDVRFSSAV
compound,measurement,setting,value
740Y-P,p-Akt in gper1−/− mutants,[1]; gper1−/− whole larvae,restored to WT levels
same,larvae with increased liver size,"[2]; WT larvae, 120 hpf, larvae with phenotype out of total observed",77%
same,liver size at 120 hpf,[2]; WT larvae,increased liver size
same,liver size in gper1−/− mutants or gper1 morphants,[2]; 120 hpf,rescued liver growth
same,gper1 morphants with small liver phenotype rescued,"[2]; gper1 morphants, 120 hpf",61%
"Brc1cc2c(cc1[C@@H]1Nc3ccccc3[C@@H]3C=CC[C@@H]31)OCO2 (racemic) [G-15, (3aS,4R,9bR)-4-(6-Bromo-1,3-benzodioxol-5-yl)-3a,4,5,9b-3H-cyclopenta[c]quinoline]",PCNA+ cells in the liver,[3],decreased
same,effect on E2-induced increase in PCNA+ hepatocytes,"[3]; zebrafish, in vivo",inhibited
same,effect on E2-induced enhancement in liver size,"[2]; WT larvae, 120 hpf",specifically inhibited
same,liver size at 120 hpf,[2]; WT larvae,reduced liver size
same,hepatocytes in G2/M phase,[4],2.9%
same,hepatocytes in S phase,[4],16.2%
same,effect on E2-associated increases in p-Akt and p-S6,[5],blocked
same,"impact of blockade on E2-induced tumor size, sex-stratified","[6]; E2+G-15, male vs female fish","predominantly observed in male, less in female fish"
same,liver tumor size (mean),"[6]; E2+G-15 co-exposure, up until 9 mpf",0.4 mm
CC/C(=C(\c1ccc(O)cc1)c1ccc(OCCN(C)C)cc1)c1ccccc1 [4-OHT],action on GPER1,[7],activated
CC(=O)c1ccc2c(c1)C1C=CCC1C(c1cc3c(cc1Br)OCO3)N2 (stereo not shown) [G-1],phosphorylated S6 (p-S6),[1]; WT whole larvae,increased phosphorylated S6
same,PCNA+ cells in the liver,[3],fractional increase
same,liver size at 120 hpf,[2]; WT larvae,increased liver size
same,liver size in gper1−/− mutants or gper1 morphants,[2]; 120 hpf,did not respond
same,liver size in hypomorphic mtor mutants,"[2]; mtor mutants, 120 hpf",did not change
same,hepatocytes in G2/M phase,[4],9.4%
same,hepatocytes in S phase,[4],21.8%
same,total hepatocyte number by FACS,[4],increased
same,liver size at 30 hpT after Mtz ablation,"[8]; WT larvae, chemical incubation for 5 hours, vs controls",significantly larger liver size
same,liver regrowth after ablation in gper1−/− mutants,[8]; gper1−/− larvae,not enhanced
same,liver regrowth after ablation in mtor−/− mutants,[8]; mtor−/− larvae,not impacted
O=c1cc(N2CCOCC2)oc2c(-c3ccccc3)cccc12 [LY292002],larvae with decreased liver size,"[2]; 120 hpf, larvae with phenotype out of total observed",72%
same,larvae in which estrogenic effect on liver size was blocked,"[2]; co-treatment of E2 and LY292002, WT larvae, 120 hpf",86%
NC1(c2ccc(-c3nc4ccn5c(=O)[nH]nc5c4cc3-c3ccccc3)cc2)CCC1 [MK-2206],effect on E2-induced enhancement in liver size,"[2]; WT larvae, 120 hpf",diminished this effect
same,liver size at 120 hpf,[2]; WT larvae,decreased liver size
CC(C)(C#N)c1cc(Cn2cncn2)cc(C(C)(C)C#N)c1 [anastrozole],liver size at 120 hpf,[2]; WT larvae,decrease in liver size
C[C@]12CC[C@@H]3c4ccc(O)cc4C[C@@H](CCCCCCCCC[S+]([O-])CCCC(F)(F)C(F)(F)F)[C@H]3[C@@H]1CC[C@@H]2O (stereo partly shown) [fulvestrant],action on GPER1,[7],activated
CC/C(=C(\c1ccccc1)c1ccc(OCCN(C)C)cc1)c1ccccc1 [tamoxifen],size and number of hepatic lesions,[9],increased the size and number of hepatic lesions
same,action on GPER1,[7],agonist
